In this test the test system is B6C3F1 mice, B16 melanoma ip, median survival T/C. Briefly: NCI In Vivo Anticancer Drug Screen. Data for tumor model B16 Melanoma (intraperitoneal) in B6C3F1 mice. The following applies: endpoint: median survival time, higher = longer survival. The procedure, abridged: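 Transplantable tumor in mice; treated vs vehicle control groups; survival or tumor size measured; value = T/C ratio.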

Setting [1] is: dose: 12.5 mg/kg/injection, schedule: Q01DX009 (ip), vehicle: saline.
The mark [2] stands for this setting: dose: 25.0 mg/kg/injection, schedule: Q01DX009 (ip), vehicle: saline.
Setting [3] is: dose: 50.0 mg/kg/injection, schedule: Q01DX009 (ip), vehicle: saline.
Setting [4] is: dose: 100.0 mg/kg/injection, schedule: Q01DX009 (ip), vehicle: saline.
Setting [5] is: dose: 25.0 mg/kg/injection, schedule: Q01DX009 (ip), vehicle: Klucel (hydroxypropylcellulose) (HPC).
[6] abbreviates: dose: 50.0 mg/kg/injection, schedule: Q01DX009 (ip), vehicle: Klucel (hydroxypropylcellulose) (HPC).
The mark [7] stands for this setting: dose: 200.0 mg/kg/injection, schedule: Q01DX009 (ip), vehicle: saline.
[8] abbreviates: dose: 400.0 mg/kg/injection, schedule: Q01DX009 (ip), vehicle: saline.
The mark [9] stands for this setting: dose: 100.0 mg/kg/injection, schedule: Q01DX009 (ip), vehicle: Klucel (hydroxypropylcellulose) (HPC).

“And” between values parts separate entries of the source, which are not always exact repeats. Equal values may be shown once. Toxic doses and inconclusive results are not listed. *1 amine or outer side, *2 acyl side, *3 side chain or, on linkers, in order; H or OH if unused. Where a SMILES comes first, the peptide text is derived from it. Bridges are numbered along the chain shown (N, C = ends). Roman numbers before positions name the chains, in order. [ ]: non-standard residue; d: D form. Actinocin(9to1) = Cc1c2oc3c(C)ccc(C(=O)[*:1])c3nc-2c(C(=O)[*:2])c(N)c1=O; NMeA = CN[CH](C)C(=O)O; Sar = CNCC(=O)O

`NCCCNCCCCNC(=O)C(O)NC(=O)CC(O)CCCCN=C(N)N` (configuration not stated): the T/C (dose: 6.25 mg/kg/injection, schedule: Q01DX009 (ip), vehicle: saline) was 101 % of control; the T/C under setting [1] was 99 % of control; the T/C under setting [2] was 98 % of control and 101 % of control; the T/C under setting [3] is 99 % of control and 101 % of control; the T/C under setting [4] was 111 % of control and 107 % of control.

In the case of `O=CNCC(=O)O`, the T/C by setting is: under setting [3], 91 % of control; under setting [4], 89 % of control.

Consider `CNC(=S)N/N=C(/C)CCc1c(C)nn(C(=S)NC)c1C`, for which the T/C is 103 % of control (dose: 12.5 mg/kg/injection, schedule: Q01DX009 (ip), vehicle: Klucel (hydroxypropylcellulose) (HPC)); 106 % of control under setting [5]; 102 % of control under setting [6].

In the case of `O=C(O)CSC(CC(=O)O)C(=O)O` (configuration not stated), the T/C was 94 % of control under setting [2], 89 % of control under setting [3] and 94 % of control under setting [4].

In the case of `Cc1cn(C2CC(O)C(CO)O2)c(=O)[nH]c1=O` (configuration not stated), the T/C was 99 % of control under setting [1]; 98 % of control under setting [2]; 102 % of control under setting [3]; 98 % of control under setting [4]; 98 % of control under setting [7]; 115 % of control under setting [8].

With `Cc1cn(C2CC3[O][Sn]([c]4ccccc4)([c]4ccccc4)[O]CC3O2)c(=O)[nH]c1=O` (configuration not stated), the T/C (dose: 25.0 mg/kg/injection, schedule: Q01DX009 (ip), vehicle: suspension in saline) is 102 % of control; the T/C (dose: 50.0 mg/kg/injection, schedule: Q01DX009 (ip), vehicle: suspension in saline) was 103 % of control; the T/C (dose: 100.0 mg/kg/injection, schedule: Q01DX009 (ip), vehicle: suspension in saline) was 113 % of control; the T/C (dose: 200.0 mg/kg/injection, schedule: Q01DX009 (ip), vehicle: suspension in saline) is 93 % of control.

Turning to `Cc1c2oc3c(C)ccc(C(=O)NC4C(=O)NC(C(C)C)C(=O)N5CCCC5C(=O)N(C)CC(=O)N(C)C(C)C(=O)OC4C)c3nc-2c(C(=O)NC2C(=O)NC(C(C)C)C(=O)N3CCCC3C(=O)N(C)CC(=O)N(C)C(C)C(=O)OC2C)c(N)c1=O` (configuration not stated) (I: TVP[Sar][NMeA] / II: TVP[Sar][NMeA]; ester I:1-I:C, II:1-II:C; linker I:N-II:N via Actinocin(9to1); configuration not given here), the T/C (dose: 0.25 mg/kg/injection, schedule: Q04DX003 (ip), vehicle: saline + alcohol) was 116 % of control; the T/C (dose: 0.5 mg/kg/injection, schedule: Q04DX003 (ip), vehicle: saline + alcohol) is 118 % of control; the T/C (dose: 1.0 mg/kg/injection, schedule: Q04DX003 (ip), vehicle: saline + alcohol) was 112 % of control and 113 % of control; the T/C (dose: 2.0 mg/kg/injection, schedule: Q04DX003 (ip), vehicle: saline + alcohol) was 116 % of control and 104 % of control; the T/C (dose: 4.0 mg/kg/injection, schedule: Q04DX003 (ip), vehicle: saline + alcohol) is 115 % of control.

On to `CC(C)(C)OC(=O)NC(Cc1cnc[nH]1)C(=O)O` (configuration not stated), for which the T/C is, setting by setting: under setting [9], 97 % of control; (dose: 200.0 mg/kg/injection, schedule: Q01DX009 (ip), vehicle: Klucel (hydroxypropylcellulose) (HPC)) 94 % of control; (dose: 400.0 mg/kg/injection, schedule: Q01DX009 (ip), vehicle: Klucel (hydroxypropylcellulose) (HPC)) 106 % of control.

For the molecule `CC(C)CC(NC=O)C(=O)O` (configuration not stated), the T/C was 103 % of control under setting [5]; 103 % of control under setting [6]; 92 % of control and 100 % of control under setting [9].

As for `C=C1C(O)C2OC3(CCC(/C=C/C(C)C4CC5(C)SC5C5(OC(CC(C)(O)C(=O)O)CCC5O)O4)O3)CCC2OC1C(O)CC(C)C1OC2(CCCCO2)CCC1C` (configuration not stated), the T/C (dose: 1.25 micrograms/kg/injection, schedule: Q01DX009 (ip), vehicle: saline + alcohol) was 104 % of control; the T/C (dose: 2.5 micrograms/kg/injection, schedule: Q01DX009 (ip), vehicle: saline + alcohol) was 111 % of control; the T/C (dose: 5.0 micrograms/kg/injection, schedule: Q01DX009 (ip), vehicle: saline + alcohol) was 120 % of control; the T/C (dose: 20.0 micrograms/kg/injection, schedule: Q01DX009 (ip), vehicle: saline + alcohol) was 97 % of control.

In the case of `CC(=O)Nc1cc2oc3ccccc3c2cc1[N+](=O)[O-]`, the T/C is 88 % of control (dose: 100.0 mg/kg/injection, schedule: Q01DX009 (ip), vehicle: saline with Tween-80) and 91 % of control (dose: 400.0 mg/kg/injection, schedule: Q01DX009 (ip), vehicle: saline with Tween-80).

For `CC(=O)[C@]1(O)Cc2c(O)c3c(c(O)c2[C@@H](OC2CC(N)C(O)C(C)O2)C1)C(=O)c1c(O)cccc1C3=O` (some centres not stated), under “dose: 0.38 mg/kg/injection, schedule: Q01DX001 (ip), vehicle: water”, the T/C is 150 % of control.

`COc1cccc2c1C(=O)c1c(O)c3c(c(O)c1C2=O)C[C@@](O)(/C(CO)=N/NC(=O)c1ccc(Cl)c(Cl)c1)C[C@@H]3OC1CC(N)C(O)C(C)O1` (some centres not stated): the T/C reads like this: (dose: 1.0 mg/kg/injection, schedule: Q01DX009 (ip), vehicle: saline) 188 % of control; (dose: 2.0 mg/kg/injection, schedule: Q01DX009 (ip), vehicle: saline) 190 % of control; (dose: 4.0 mg/kg/injection, schedule: Q01DX009 (ip), vehicle: saline) 250 % of control; (dose: 8.0 mg/kg/injection, schedule: Q01DX009 (ip), vehicle: saline) 267 % of control; (dose: 16.0 mg/kg/injection, schedule: Q01DX009 (ip), vehicle: saline) 357 % of control.

As for `C(COCCOCC1CO1)OCCOCC1CO1` (configuration not stated), the T/C under setting [1] was 108 % of control; the T/C under setting [2] is 104 % of control; the T/C under setting [3] was 107 % of control; the T/C under setting [7] was 153 % of control; the T/C under setting [8] was 178 % of control.

`c1cc[c]([Sn]([c]2ccccc2)([c]2ccccc2)[n]2cccc2)cc1`: the T/C was 113 % of control (dose: 0.79 mg/kg/injection, schedule: Q01DX009 (ip), vehicle: saline with Tween-80); 98 % of control (dose: 1.56 mg/kg/injection, schedule: Q01DX009 (ip), vehicle: saline with Tween-80); 93 % of control (dose: 3.12 mg/kg/injection, schedule: Q01DX009 (ip), vehicle: saline with Tween-80); 113 % of control (dose: 6.25 mg/kg/injection, schedule: Q01DX009 (ip), vehicle: saline with Tween-80).

`CO[C@H](/C(C)=C/C=C/C(C)=C/c1coc(C)n1)[C@H](C)[C@H]1C[C@@H](O)[C@@]2(C)O[C@H]2/C=C/[C@@H](C)[C@@H]2C[C@@H](CC(=O)O2)C[C@H]2O[C@@H]2C(=O)O1`: the T/C reads like this: (dose: 0.01 mg/kg/injection, schedule: Q01DX009 (ip), vehicle: Klucel (hydroxypropylcellulose) (HPC)) 118 % of control and 98 % of control and 102 % of control; (dose: 0.01 mg/kg/injection, schedule: Q01DX009 (ip), vehicle: other) 94 % of control and 106 % of control; (dose: 0.03 mg/kg/injection, schedule: Q01DX009 (ip), vehicle: Klucel (hydroxypropylcellulose) (HPC)) 111 % of control and 112 % of control and 97 % of control; (dose: 0.03 mg/kg/injection, schedule: Q01DX009 (ip), vehicle: other) 110 % of control; (dose: 0.1 mg/kg/injection, schedule: Q01DX009 (sc), vehicle: Klucel (hydroxypropylcellulose) (HPC)) 154 % of control; (dose: 0.4 mg/kg/injection, schedule: Q01DX009 (sc), vehicle: Klucel (hydroxypropylcellulose) (HPC)) 117 % of control.

Consider `CN(C)c1nc(N(C)C)nc(N(C)C)n1`, for which the T/C (dose: 12.5 mg/kg/injection, schedule: Q01DX009 (ip), vehicle: saline with Tween-80) was 88 % of control.

In the case of `O=c1[nH]cnc2c1ccn2C1OC(CO)C(O)C1O` (configuration not stated), the T/C (dose: 0.37 mg/kg/injection, schedule: Q01DX009 (ip), vehicle: saline) was 106 % of control; the T/C (dose: 0.75 mg/kg/injection, schedule: Q01DX009 (ip), vehicle: saline) is 99 % of control; the T/C (dose: 1.5 mg/kg/injection, schedule: Q01DX009 (ip), vehicle: saline) is 106 % of control; the T/C (dose: 3.0 mg/kg/injection, schedule: Q01DX009 (ip), vehicle: saline) is 113 % of control; the T/C (dose: 6.0 mg/kg/injection, schedule: Q01DX009 (ip), vehicle: saline) is 115 % of control; the T/C (dose: 12.0 mg/kg/injection, schedule: Q01DX009 (ip), vehicle: saline) is 105 % of control.

For the molecule `CC/C(C)=C1\OC(=O)C(C)C(O)C(Cc2cccnc2)NC(=O)C(NC(=O)c2ncccc2O)C(C)OC1=O` (configuration not stated), the T/C is 113 % of control (dose: 0.75 mg/kg/injection, schedule: Q01DX009 (ip), vehicle: saline with Tween-80); 107 % of control (dose: 1.5 mg/kg/injection, schedule: Q01DX009 (ip), vehicle: saline with Tween-80); 123 % of control (dose: 3.0 mg/kg/injection, schedule: Q01DX009 (ip), vehicle: saline with Tween-80); 86 % of control (dose: 6.0 mg/kg/injection, schedule: Q01DX009 (ip), vehicle: saline with Tween-80).

Values taken from PubChem BioAssay AID200 (DTP/NCI, 2004).
